Experimental data from patent US20250283038A1, “COMPOUNDS INDUCING PRODUCTION OF PROTEINS BY IMMUNE CELLS” (UNIVERSITE PARIS CITE, priority 2022, published 2025).

Tested on: human B cells
Experiment: IL-10 induction in human B cells cultivated with anti-IgM plus CpG, IL-10 measured in cell culture supernatants
Assay type: cell-based
Settings: 2 consecutive days, molecule at 0.25 μM final concentration
Description: Human B cells isolated magnetically through negative selection (B Cell Isolation Kit II, human, Miltenyi ref: 130-091-151) were cultivated for 2 consecutive days in the presence of anti-IgM plus CpG in the presence of the indicated molecule (see table 3) at 0.25μM final concentration. IL-10 was measured in cell culture supernatants.
Human B cells isolated magnetically through negative selection (B Cell Isolation Kit II, human, Miltenyi ref: 130-091-151) were cultivated for 2 consecutive days in the presence of anti-IgM plus CpG in the presence of DMSO (as control) or in the presence of the tested molecules at 0.25 microM final concentration. IL-10 was measured in cell culture supernatants. NS: non stimulated B cell culture condition.

## N-(2-(4-fluorophenyl)imidazo[1,2-a]pyridin-6-yl)-2-methoxybenzamide [Compound 217]
  II-10 Induction Mean (pg/mL) human: 2.06 pg/mL
